Laboratory results as given in PubChem BioAssay (NCI).
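Dose response: 5 concentrations. Exposure: 48 h. Format: 96-well plates. Endpoint: linear interpolation; highest concentration if not reached. The concentration for full growth arrest is given as TGI.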

What was measured:
Assay in all cases: NCI-60 cell line screen, 48 h
OVCAR-5 ovarian = test system: OVCAR-5 ovarian
M14 melanoma = test system: M14 melanoma
A498 renal = test system: A498 renal
NCI-H23 lung = test system: NCI-H23 lung
HT29 colon = test system: HT29 colon
KM12 colon = test system: KM12 colon
HL-60(TB) leukemia = test system: HL-60(TB) leukemia
OVCAR-4 ovarian = test system: OVCAR-4 ovarian
SK-MEL-28 melanoma = test system: SK-MEL-28 melanoma
NCI/ADR-RES ovarian = test system: NCI/ADR-RES ovarian

Compound | TGI (OVCAR-5 ovarian) | TGI (M14 melanoma) | TGI (A498 renal) | TGI (NCI-H23 lung) | TGI (HT29 colon) | TGI (KM12 colon) | TGI (HL-60(TB) leukemia) | TGI (OVCAR-4 ovarian) | TGI (SK-MEL-28 melanoma) | TGI (NCI/ADR-RES ovarian)
COc1ccc(NC2Oc3cc4c(cc3C(c3cc(OC)c(OC)c(OC)c3)C2C)OCO4)cc1 (configuration not stated) | > 100 µM | > 45.1 µM | 0.92 µM | > 89.7 µM | > 100 µM | > 31.6 µM | 2 µM | > 100 µM | > 100 µM | 
Cc1ccc(C2=Nc3c(c(C)nn3-c3ccccc3)N=C(C(=O)O)C2)cc1 | > 10 µM | > 10 µM | > 10 µM | > 10 µM | > 10 µM | > 10 µM | > 10 µM | > 10 µM | > 10 µM | > 10 µM
CC1CC(C#N)=C2NCCCCN2C1=O (configuration not stated) |  | > 100 µM |  | > 100 µM | > 100 µM | > 100 µM | > 100 µM | > 100 µM | > 100 µM | > 100 µM
O=C(OCc1ccccc1)OOC(=O)OCc1ccccc1 | > 100 µM | > 100 µM | > 100 µM | > 100 µM | > 100 µM | > 100 µM | > 100 µM | > 100 µM | > 100 µM | 
Cc1ccc(C(=O)Nc2ccc(CP(=O)(O)O)cc2)cc1NC(=O)c1cccc(NC(=O)Nc2cccc(C(=O)Nc3cc(C(=O)Nc4ccc(CP(=O)(O)O)cc4)ccc3C)c2)c1 | > 100 µM | > 100 µM | > 100 µM | > 100 µM | > 100 µM | > 100 µM | > 100 µM | > 100 µM | > 100 µM | > 100 µM
CN(O)C(=O)Cc1ccc(OCc2cccc(Cl)c2)cc1 | > 100 µM | > 100 µM | 94.3 µM | > 100 µM | > 100 µM | > 100 µM | > 100 µM | > 100 µM | > 100 µM | > 100 µM
OCc1ccccc1C1CSCSC1 |  |  |  |  | > 100 µM | > 100 µM | > 100 µM | > 100 µM | > 100 µM | 
CC(C)c1c(P(=O)(c2ccccc2)c2ccccc2)n(C)c2ccccc12 | > 100 µM | > 100 µM | > 100 µM | > 100 µM | > 100 µM | > 100 µM | 96.9 µM | > 100 µM | > 100 µM | > 100 µM
CCN(CCCN(CC)C(=O)N[C@@H](Cc1ccccc1)C(=O)NC)C(=O)N[C@@H](Cc1ccccc1)C(=O)NC | > 100 µM | > 100 µM | > 100 µM | > 100 µM | > 100 µM | > 100 µM |  | > 100 µM | > 100 µM | > 100 µM
CCOP(=O)(OCC)/C(F)=C/c1ccccc1 | > 100 µM | > 100 µM | > 100 µM | > 100 µM | > 100 µM | > 100 µM | > 100 µM | > 100 µM | > 100 µM | > 100 µM
c1ccc(N=c2snc(-c3ccccc3)s2)cc1 |  | > 100 µM | > 100 µM |  |  | > 100 µM | > 100 µM | > 100 µM | > 100 µM | 
CC(C)/C(Cl)=N\OC(=O)NNc1ccccc1 | > 100 µM | > 56.3 µM | > 100 µM | > 100 µM | > 100 µM | > 100 µM |  | > 100 µM | > 100 µM | > 100 µM
O=C(/C=C/c1cccs1)c1ccc(Cl)cc1 | > 100 µM |  | > 100 µM | > 100 µM | > 100 µM | > 100 µM | 70.5 µM |  | > 100 µM | > 100 µM
O=C(O)c1ccc(NS(=O)(=O)Cc2ccccc2)cc1 | > 100 µM | > 100 µM | > 100 µM | > 100 µM | > 100 µM | > 100 µM | > 100 µM | > 100 µM | > 100 µM | > 100 µM
O=C1/C(=C/c2ccc(F)cc2)CNC/C1=C\c1ccc(F)cc1 | 8.99 µM | 4.35 µM | 4.33 µM | 3.5 µM | 7.4 µM | 1.59 µM | > 100 µM | > 36.8 µM | 2.68 µM | 
O=C1OC[C@@H]2Cc3c([nH]c4ccccc34)[C@@H](c3ccc(O)cc3)N12 | > 100 µM | 54.7 µM | > 81 µM | 54.6 µM | 98.4 µM | 53.1 µM | > 81.7 µM | > 86.4 µM | > 100 µM | > 100 µM
Cc1oc2nc(N(C)C)n3nnnc3c2c1C | > 100 µM | > 100 µM | > 100 µM | > 100 µM | > 100 µM | > 100 µM | 63.6 µM | > 100 µM | > 100 µM | > 100 µM
CCN(CC)CCCn1c(=O)c2cccnc2n2c3c(=O)n(C)c(=O)n(C)c3nc12 | > 100 µM | > 100 µM |  | > 100 µM | > 100 µM | > 100 µM | > 100 µM | > 100 µM | > 100 µM | > 100 µM
CN(C)c1ccc(/C(Br)=C2\OC(=O)c3ccccc32)cc1 | > 100 µM | > 100 µM | > 100 µM | > 100 µM | > 100 µM | > 100 µM | > 100 µM | > 100 µM | > 100 µM | > 100 µM
CC1=C2c3ccccc3N(C(=O)/C=C/C(=O)O)[C@H]2[C@H]2C(=O)OC(=O)[C@H]2C1 | > 10 µM | > 10 µM | > 10 µM | > 10 µM | > 10 µM | > 10 µM | > 10 µM | > 10 µM | > 10 µM | > 10 µM
Cc1nc(Cl)c(CBr)c(Cl)n1 | 3.84 µM | 0.949 µM | 24.7 µM | 3.69 µM |  | 2.72 µM |  | 3.56 µM | 3.07 µM | 7.8 µM
CC1=CC(=O)N(n2c(C)n[nH]c2=O)C1=O | > 100 µM | > 100 µM | > 100 µM | > 100 µM | > 100 µM | > 100 µM |  | > 100 µM |  | > 100 µM
